How the values were obtained:
[1] = tested on: NEC8 (Other Solid Carcinomas); assay: Bliss excess, mean over the matrix (fraction); higher = more synergy
Summary of the method: (§1)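 Cell lines in DMEM/F12 or RPMI with 10% FBS were plated in 1536-well plates, held 24 hours at 37°C, 5% CO2, then given two-drug dose matrices for 72 hours (DMSO typically 0.2%). Viability was read by CellTiter-Glo 2.0 luminescence and scaled as inhibition from 0 (vehicle wells) to 1 (blank wells). Combination Emax is the second-highest inhibition in the matrix; Bliss excess is observed combination effect minus expected EA + EB − EA·EB, EA and EB being single-agent effects.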

[2] = tested on: ACHN (Kidney Carcinoma); assay: as above
Summary of the method: as §1

[3] = tested on: OVCAR-4 (Ovarian Carcinoma); assay: as above
Summary of the method: as §1

[4] = tested on: VA-ES-BJ (Other Solid Carcinomas); assay: as above
Summary of the method: as §1

[5] = tested on: C-4-I (Cervical Carcinoma); assay: as above
Summary of the method: as §1

[6] = tested on: HSC-4 (Oral Cavity Carcinoma); assay: as above
Summary of the method: as §1

[7] = tested on: OSC-20 (Oral Cavity Carcinoma); assay: as above
Summary of the method: as §1

[8] = tested on: PWR-1E (Non-Cancerous); assay: as above
Summary of the method: as §1

[9] = tested on: HGC-27 (Gastric Carcinoma); assay: as above
Summary of the method: as §1

[10] = tested on: Hs-766T (Pancreatic Carcinoma); assay: as above
Summary of the method: as §1

[11] = tested on: KYSE-450 (Esophageal Squamous Cell Carcinoma); assay: as above
Summary of the method: as §1

[12] = tested on: TGW (Neuroblastoma); assay: as above
Summary of the method: as §1

[13] = tested on: Ca9-22 (Head and Neck Carcinoma); assay: as above
Summary of the method: as §1

[14] = tested on: KMOE-2 (Acute Myeloid Leukemia); assay: as above
Summary of the method: as §1

[15] = tested on: LU-65 (Non-Small Cell Lung Carcinoma); assay: as above
Summary of the method: as §1

[16] = tested on: NUGC-3 (Gastric Carcinoma); assay: as above
Summary of the method: as §1

[17] = tested on: OE19 (Esophageal Adenocarcinoma); assay: as above
Summary of the method: as §1

[18] = tested on: NCI-H358 (Lung Adenocarcinoma); assay: as above
Summary of the method: as §1

[19] = tested on: EW-24 (Ewing's Sarcoma); assay: as above
Summary of the method: as §1

[20] = tested on: EoL-1-cell (Acute Myeloid Leukemia); assay: combination Emax (second highest fraction inhibited in the dose matrix, 72 h); higher = more inhibition; extreme values may be limits of the assay
Summary of the method: as §1
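Wherever Bliss excess, mean over the matrix is given: after 72 h of two-drug dosing.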

Row | Compound | Bliss excess [1] | Bliss excess [2] | Bliss excess [3] | Bliss excess [4] | Bliss excess [5] | Bliss excess [6] | Bliss excess [7] | Bliss excess [8] | Bliss excess [9] | Bliss excess [10] | Bliss excess [11] | Bliss excess [12] | Bliss excess [13] | Bliss excess [14] | Bliss excess [15] | Bliss excess [16] | Bliss excess [17] | Bliss excess [18] | Bliss excess [19] | combination Emax [20]
1 | CC1(C)CCC(CN2CCN(c3ccc(C(=O)NS(=O)(=O)c4ccc(NCC5CCOCC5)c([N+](=O)[O-])c4)c(Oc4cnc5[nH]ccc5c4)c3)CC2)=C(c2ccc(Cl)cc2)C1 [Venetoclax] + CN(C)CCCOc1ccc(-c2ccc3ncc4c(c3c2)n(C2CCOCC2)c(=O)n4C)cn1 [AZD0156] (first compound max 1 µM, 7x7, partner max 1 µM) | 0.0105 | -0.0333 | -0.0338 | -0.0204 | 0.0229 | -0.0392 | -0.0304 | 0.0005 | 0.0396 | -0.0841 | -0.0795 | -0.0245 | 0.0234 | -0.0291 | 0.0173 | -0.0035 | -0.0861 | -0.0146 | 0.0147 | 0.986
2 | CC1(C)CCC(CN2CCN(c3ccc(C(=O)NS(=O)(=O)c4ccc(NCC5CCOCC5)c([N+](=O)[O-])c4)c(Oc4cnc5[nH]ccc5c4)c3)CC2)=C(c2ccc(Cl)cc2)C1 [Venetoclax] + COc1cc(Nc2ncc3c(n2)-c2ccc(Cl)cc2C(c2c(F)cccc2OC)=NC3)ccc1C(=O)O [Alisertib] (first compound max 1 µM, 7x7, partner max 10 µM) | -0.0037 | 0.0062 | -0.0215 | -0.0089 | -0.0158 | -0.0528 | -0.051 | -0.0103 | 0.0133 | -0.0765 | 0.007 | 0.0858 | -0.0147 | 0.0304 | -0.0164 | 0.0325 | -0.059 | 0.0186 | 0.0205 | 1
3 | CC1(C)CCC(CN2CCN(c3ccc(C(=O)NS(=O)(=O)c4ccc(NCC5CCOCC5)c([N+](=O)[O-])c4)c(Oc4cnc5[nH]ccc5c4)c3)CC2)=C(c2ccc(Cl)cc2)C1 [Venetoclax] + C[C@@H]1COCCN1C2=NC(=NC(=C2)C3(CC3)[S@](=N)(=O)C)C4=C5C=CNC5=NC=C4 [AZD6738] (first compound max 1 µM, 7x7, partner max 10 µM) | -0.0293 | -0.0445 | -0.0384 | -0.0185 | -0.0398 | -0.0509 | -0.0599 | -0.0747 | -0.0099 | -0.0596 | -0.061 | -0.0202 | -0.0019 | 0.0071 | -0.1 | -0.035 | -0.0691 | -0.0224 | 0.0218 | 1
4 | CC1(C)CCC(CN2CCN(c3ccc(C(=O)NS(=O)(=O)c4ccc(NCC5CCOCC5)c([N+](=O)[O-])c4)c(Oc4cnc5[nH]ccc5c4)c3)CC2)=C(c2ccc(Cl)cc2)C1 [Venetoclax] + C[C@@H](Nc1cc(F)cc(F)c1)c1cc(C(=O)N(C)C)cc2c(=O)cc(N3CCOCC3)oc12 [AZD8186] (first compound max 1 µM, 7x7, partner max 3 µM) | -0.0197 | -0.0208 | -0.0186 | -0.0245 | 0.0078 | -0.0369 | -0.0516 | -0.0112 | -0.0256 | -0.0487 | -0.0457 | 0.0136 | -0.0104 | -0.0254 | -0.0235 | -0.0192 | -0.0065 | -0.0521 | -0.01 | 1
5 | CC1(C)CCC(CN2CCN(c3ccc(C(=O)NS(=O)(=O)c4ccc(NCC5CCOCC5)c([N+](=O)[O-])c4)c(Oc4cnc5[nH]ccc5c4)c3)CC2)=C(c2ccc(Cl)cc2)C1 [Venetoclax] + Cc1cc2ncnn2cc1Nc1ncc2c(n1)n(C1CCOCC1)c(=O)n2C [AZD7648] (first compound max 1 µM, 7x7, partner max 10 µM) | 0.0282 | -0.0244 | -0.0163 | -0.0341 | 0.0131 | -0.058 | -0.0062 | -0.0152 | -0.0261 | -0.0756 | -0.0515 | 0.0025 | -0.0241 | -0.0596 | -0.0418 | 0.0247 | -0.0253 | -0.0207 | -0.0699 | 0.996
6 | CC1(C)CCC(CN2CCN(c3ccc(C(=O)NS(=O)(=O)c4ccc(NCC5CCOCC5)c([N+](=O)[O-])c4)c(Oc4cnc5[nH]ccc5c4)c3)CC2)=C(c2ccc(Cl)cc2)C1 [Venetoclax] + Cn1cnc2c(F)c(Nc3ccc(Br)cc3Cl)c(C(=O)NOCCO)cc21 [Selumetinib] (first compound max 1 µM, 7x7, partner max 3 µM) | -0.0151 | -0.0151 | -0.02 | -0.0473 | -0.0299 | -0.0211 | -0.038 | -0.0327 | -0.0178 | -0.0346 | -0.0432 | 0.0099 | 0.0054 | -0.0168 | -0.0153 | 0.0051 | -0.0484 | -0.024 | -0.0463 | 1

From the supplement of paper PMC11061612
